Results reported in ChEMBL document CHEMBL6071183, “Neuroprotective Effect of 2-(Benzyloxy)arylureas Is Not Related to CypD Inhibition nor Suppression of mPTP Opening” (ACS Med Chem Lett, 2024).
In brackets after ≈: the same amount, converted by molar mass.

Legend:
[1] = molecular target: Peptidyl-prolyl cis-trans isomerase A (Homo sapiens, UniProt P62937)
Sequence of Peptidyl-prolyl cis-trans isomerase A (P62937 whole entry): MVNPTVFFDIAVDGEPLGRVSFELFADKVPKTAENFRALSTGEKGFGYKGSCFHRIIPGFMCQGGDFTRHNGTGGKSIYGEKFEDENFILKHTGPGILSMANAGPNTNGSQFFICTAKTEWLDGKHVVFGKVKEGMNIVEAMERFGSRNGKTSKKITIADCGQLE

solubility (physchem): 20 µM (≈ 7.29 µg/mL)
IC50 [1]: 10 µM
SMILES: O=C(Nc1ccc([N+](=O)[O-])cc1)Nc1ncccc1OCc1ccccc1
